Experimental data as given in ChEMBL document CHEMBL1201862, “PubChem BioAssay data set” (2004).
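Grown in 96-well plates, cells were treated for 48 hours with each compound at five concentrations. Insufficient inhibition: endpoint recorded as highest concentration tested. The concentration for 50% growth inhibition is given as GI50.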 Calls of active or inactive are those of the source. Cut-off read from the data, not from the text of the source: active = GI50 up to about 1.1 µM and inactive = higher.

What was measured:
Test in all cases: growth of human tumour cells (NCI), 48 h
[1] = system: U-251
[2] = system: OVCAR-3
[3] = system: RPMI-8226
[4] = system: SK-MEL-5
[5] = system: HT-29
[6] = system: SK-MEL-28
[7] = system: SF-295
[8] = system: SF-268
[9] = system: HCC 2998
[10] = system: ACHN
[11] = system: HOP-62
[12] = system: OVCAR-8
[13] = system: SK-OV-3
[14] = system: HL-60
[15] = system: HCT-116
[16] = system: IGROV-1
[17] = system: SR
[18] = system: SW-620
[19] = system: HOP-92
[20] = system: KM12
[21] = system: OVCAR-5
[22] = system: M19-MEL
[23] = system: TK-10
[24] = system: SNB-75
[25] = system: DLD-1
[26] = system: UACC-257
[27] = system: A549
[28] = system: NCI-H522
[29] = system: K562
[30] = system: LXFL 529
[31] = system: UACC-62
[32] = system: UO-31
[33] = system: NCI-H226
[34] = system: MOLT-4
[35] = system: CCRF-CEM
[36] = system: NCI-H23
[37] = system: NCI-H460
[38] = system: COLO 205
[39] = system: SF-539
[40] = system: SNB-19
[41] = system: Hs-578T
[42] = system: LOX IMVI
[43] = system: EKVX
[44] = system: A498
[45] = system: CAKI-1
[46] = system: PC-3
[47] = system: MDA-MB-231
[48] = system: SN12C
[49] = system: HCT-15
[50] = system: MDA-MB-435
[51] = system: 786-0
[52] = system: NCI/ADR-RES
[53] = system: T47D
[54] = system: OVCAR-4
[55] = system: DU-145
[56] = system: RXF 393
[57] = system: M14
[58] = system: MDA-N
[59] = system: Malme-3M
[60] = system: MCF7
[61] = system: SK-MEL-2
[62] = system: BT-549

In the case of COc1ccc(/C=N/n2cnc3c(sc(=S)n3-c3ccccc3)c2=O)cc1, the GI50 [1] is reported as 23200 nM (inactive), the GI50 [2] is reported as 14900 nM (inactive) and the GI50 [3] is reported as 16400 nM (inactive). For the same compound, the GI50 [4] was 24700 nM (inactive), the GI50 [5] was 24500 nM (inactive) and the GI50 [6] was 13200 nM (inactive). For the same compound, the GI50 [7] was 10000 nM (inactive), the GI50 [8] was 6280 nM (inactive) and the GI50 [9] was 23900 nM (inactive). The GI50 [10] was 27600 nM (inactive), the GI50 [11] was 12200 nM (inactive) and the GI50 [12] was 26500 nM (inactive). The GI50 [13] was 13200 nM (inactive), the GI50 [14] was 12500 nM (inactive) and the GI50 [15] was > 100000 nM (inactive). For the same compound, the GI50 [16] was 37000 nM (inactive), the GI50 [17] was 29200 nM (inactive) and the GI50 [18] was 99300 nM (inactive). For the same compound, the GI50 [19] was 4430 nM (inactive), the GI50 [20] was > 100000 nM (inactive) and the GI50 [21] was 1680 nM (inactive). For the same compound, the GI50 [22] was 33200 nM (inactive), the GI50 [23] was 25300 nM (inactive) and the GI50 [24] was 2470 nM (inactive). The GI50 [25] was 26800 nM (inactive), the GI50 [26] was 23600 nM (inactive) and the GI50 [27] was 45500 nM (inactive). For the same compound, the GI50 [28] was 13500 nM (inactive), the GI50 [29] was 15800 nM (inactive) and the GI50 [30] was 16900 nM (inactive). For the same compound, the GI50 [31] was 16700 nM (inactive), the GI50 [32] was 40400 nM (inactive) and the GI50 [33] was 18300 nM (inactive). The GI50 [34] was 20400 nM (inactive), the GI50 [35] was 18300 nM (inactive) and the GI50 [36] was 23600 nM (inactive). For the same compound, the GI50 [37] was 35800 nM (inactive), the GI50 [38] was 50800 nM (inactive) and the GI50 [39] was 12800 nM (inactive). The GI50 [40] was 17700 nM (inactive).

Cc1cc(C)c2c(O)cc(-c3cccc(F)c3)nc2n1 was tested, and the GI50 [41] was 61.4 nM (active), the GI50 [1] was 72.4 nM (active) and the GI50 [42] was 191 nM (active). For the same compound, the GI50 [2] was 25 nM (active), the GI50 [43] was 450 nM (active) and the GI50 [44] was 274 nM (active). For the same compound, the GI50 [45] was 53.6 nM (active), the GI50 [3] was 139 nM (active) and the GI50 [46] was 71.8 nM (active). For the same compound, the GI50 [47] was 420 nM (active), the GI50 [4] was 42.2 nM (active) and the GI50 [5] was 40.5 nM (active). The GI50 [48] was 299 nM (active), the GI50 [6] was 115 nM (active) and the GI50 [7] was 34.8 nM (active). For the same compound, the GI50 [49] was 49.5 nM, the GI50 [8] was 1440 nM (inactive) and the GI50 [9] was 301 nM (active). The GI50 [10] was 95.3 nM (active), the GI50 [50] was < 10 nM (active) and the GI50 [11] was 158 nM (active). For the same compound, the GI50 [12] was 261 nM (active), the GI50 [13] was 158 nM (active) and the GI50 [14] was 31.2 nM (active). The GI50 [15] was < 18.6 nM (active), the GI50 [16] was 76.6 nM (active) and the GI50 [51] was 177 nM (active). For the same compound, the GI50 [17] was 16.9 nM (active), the GI50 [18] was < 19.4 nM (active) and the GI50 [19] was < 10 nM (active). For the same compound, the GI50 [20] was 35.1 nM (active), the GI50 [52] was 42.2 nM (active) and the GI50 [53] was 232 nM (active). The GI50 [21] was 399 nM (active), the GI50 [23] was 23700 nM (inactive) and the GI50 [54] was 4080 nM (inactive). The GI50 [55] was 215 nM (active), the GI50 [56] was 163 nM (active) and the GI50 [24] was 69.2 nM (active). For the same compound, the GI50 [57] was 52.1 nM (active), the GI50 [26] was 10400 nM (inactive) and the GI50 [58] was 11.6 nM (active). The GI50 [27] was 84.7 nM (active), the GI50 [28] was 30 nM (active) and the GI50 [29] was < 17.5 nM (active). The GI50 [59] was 61.4 nM (active), the GI50 [60] was 30.8 nM (active) and the GI50 [31] was < 28.4 nM (active). The GI50 [61] was 98 nM (active), the GI50 [32] was 12900 nM (inactive) and the GI50 [33] was 168 nM (active). For the same compound, the GI50 [34] was 220 nM (active), the GI50 [35] was 172 nM (active) and the GI50 [36] was 294 nM (active). The GI50 [37] was 73.8 nM (active), the GI50 [38] was 43 nM (active) and the GI50 [62] was 175 nM (active). The GI50 [39] was 94.4 nM (active) and the GI50 [40] was 136 nM (active).
